From ChEMBL document CHEMBL2396588, “Synthesis, biological evaluation and molecular modeling of substituted 2-aminobenzimidazoles as novel inhibitors of acetylcholinesterase and butyrylcholinesterase” (Bioorg Med Chem, 2013) come the findings set out here.

Molecules are shown by their SMILES.

What is called IC50 is the concentration needed to halve the response being measured. A higher IC50 goes with weaker potency.

Data set [1] has as its system HepG2. The data set can be described thus: (§1) Cytotoxicity against human HepG2 cells assessed as cell viability at 100 uM after 48 hrs by MTT assay. The format is cell-based. Particulars: hepg2, 48 h, 100 µM.
Data set [2] has as its target Cholinesterase (Homo sapiens, UniProt P06276). Briefly: Inhibition of human BuChE using butyrylthiocholine iodide as substrate incubated for 20 mins prior to substrate addition measured for 1 hr by Ellman's method. In general terms: Ellman's reagent forms a yellow product with free thiols.
Data set [3] addresses Acetylcholinesterase (Homo sapiens, UniProt P22303). Briefly: Inhibition of human AchE using acetylthiocholine iodide as substrate incubated for 20 mins prior to substrate addition measured for 1 hr by Ellman's method.
In data set [4] the test system is PC-12. Briefly: Cytotoxicity against rat PC12 cells assessed as cell viability at 100 uM after 48 hrs by MTT assay. Particulars: pc-12, 48 h. Format: cell-based.
The species named for data set [5] is Homo sapiens. Briefly: Selectivity ratio of IC50 for human AChE to IC50 for human BuChE.
A short description of data set [6]: as §1. The format is cell-based. Particulars: HepG2 cells, read-out: Activity.

Chain of Cholinesterase (P06276 whole entry): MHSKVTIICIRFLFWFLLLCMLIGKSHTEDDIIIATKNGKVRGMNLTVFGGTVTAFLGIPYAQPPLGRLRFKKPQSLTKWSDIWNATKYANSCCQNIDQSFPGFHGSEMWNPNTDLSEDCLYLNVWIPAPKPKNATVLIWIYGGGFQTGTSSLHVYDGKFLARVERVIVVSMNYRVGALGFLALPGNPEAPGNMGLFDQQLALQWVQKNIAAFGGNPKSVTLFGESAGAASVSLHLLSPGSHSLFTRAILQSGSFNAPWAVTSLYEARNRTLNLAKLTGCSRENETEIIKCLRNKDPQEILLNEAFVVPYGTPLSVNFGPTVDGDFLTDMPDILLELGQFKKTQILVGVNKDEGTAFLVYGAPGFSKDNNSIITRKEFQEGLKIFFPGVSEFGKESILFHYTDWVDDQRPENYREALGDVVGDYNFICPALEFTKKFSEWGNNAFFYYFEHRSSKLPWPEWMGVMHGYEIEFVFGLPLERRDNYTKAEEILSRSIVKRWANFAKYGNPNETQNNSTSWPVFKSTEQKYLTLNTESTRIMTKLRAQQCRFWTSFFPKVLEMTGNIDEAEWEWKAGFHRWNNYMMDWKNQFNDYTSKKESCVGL
Chain of Acetylcholinesterase (P22303 whole entry): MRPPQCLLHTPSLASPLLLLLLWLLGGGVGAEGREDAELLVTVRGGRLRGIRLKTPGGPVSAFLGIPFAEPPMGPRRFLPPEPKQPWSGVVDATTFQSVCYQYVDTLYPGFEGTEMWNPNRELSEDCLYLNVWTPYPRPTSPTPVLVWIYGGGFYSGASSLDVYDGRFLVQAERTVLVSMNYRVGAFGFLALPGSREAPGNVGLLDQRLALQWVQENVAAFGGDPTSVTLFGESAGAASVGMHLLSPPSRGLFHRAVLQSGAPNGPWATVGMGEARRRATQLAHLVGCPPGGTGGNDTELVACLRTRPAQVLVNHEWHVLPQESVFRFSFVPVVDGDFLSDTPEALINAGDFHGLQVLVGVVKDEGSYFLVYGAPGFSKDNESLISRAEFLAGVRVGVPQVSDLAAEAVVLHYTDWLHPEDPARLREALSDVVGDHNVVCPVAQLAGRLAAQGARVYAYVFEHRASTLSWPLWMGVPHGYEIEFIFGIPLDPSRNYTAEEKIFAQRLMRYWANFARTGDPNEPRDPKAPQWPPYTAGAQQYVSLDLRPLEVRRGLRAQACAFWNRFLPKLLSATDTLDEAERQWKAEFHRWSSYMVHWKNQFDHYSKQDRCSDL

On to `CN(C)CCCN(c1nc2ccccc2[nH]1)c1nc2ccccc2[nH]1`, for which the Activity entry in data set [1] and in data set [4] was “Non-toxic” in each case. The IC50 in data set [2] was determined as 2.26 µM; in data set [3] it was 59.7 µM. Further, the Ratio IC50 in data set [5] amounted to 26.4.

On to `CC(C)(C)OC(=O)NCCNc1nc2ccccc2[nH]1`, for which the Activity result in data set [1] and in data set [4] was “Non-toxic” throughout. In addition, the results for the IC50 in data set [2] and in data set [3] were 71.9 µM and more than 100 µM, respectively.

For `c1ccc2c(c1)CCCN2c1nc2ccccc2[nH]1`, the Activity result in data set [1] and in data set [4] was “Non-toxic” each time. In addition, the half-maximal inhibitory concentration (IC50) in data set [2] and in data set [3] was more than 100 µM in each case.

With `NCCNc1nc2ccccc2[nH]1`, the Activity entry in data set [1] and in data set [4] was “Non-toxic” throughout. In addition, the 50% inhibitory concentration (IC50) in data set [2] and in data set [3] was more than 100 µM each time.

With `c1ccc2[nH]c(N3CCCCC3)nc2c1`, the Activity entry in data set [1] and in data set [4] was “Non-toxic” each time. The IC50 in data set [2] was found to be 1.57 µM; in data set [3], 59.2 µM. Besides, the Ratio IC50 in data set [5] amounted to 37.7.

`c1ccc(Nc2nc3ccccc3[nH]2)nc1`: the Activity result in data set [1] and in data set [4] was “Non-toxic” throughout. Moreover, the IC50 in data set [2] and in data set [3] was more than 100 µM throughout.

Consider `CCCCN(C)c1nc2ccccc2[nH]1`, for which the Activity entry in data set [1] and in data set [4] was “Non-toxic” throughout. For the same compound, the IC50 in data set [2] and in data set [3] was more than 100 µM in each case.

With `c1ccc2[nH]c(NC34CC5CC(CC(C5)C3)C4)nc2c1`, the Activity entry in data set [1] and in data set [4] was “Non-toxic” throughout. Moreover, the IC50 in data set [2] and in data set [3] was more than 100 µM in each case.

Take `c1ccc(CCCNc2nc3ccccc3[nH]2)cc1`: the Activity entry in data set [1] and in data set [4] was “Non-toxic” throughout. The IC50 in data set [2] and in data set [3] was more than 100 µM each time.

Turning to `CCCCNc1nc2ccccc2[nH]1`, the viability at 48 h, 100 µM in data set [6] was 85.2%. Further, the half-maximal inhibitory concentration (IC50) in data set [2] was 61 µM; in data set [3] it was more than 100 µM.

As to `CCCCN(C)c1nc2ccccc2n1C`, the Activity result in data set [1] and in data set [4] was “Non-toxic” throughout. In addition, the IC50 in data set [2] and in data set [3] was more than 100 µM throughout.

Consider `CC1CCCCN1c1nc2ccccc2[nH]1` (configuration not stated), for which the Activity entry in data set [1] and in data set [4] was “Non-toxic” in each case. Also, the figures for the IC50 in data set [2] and in data set [3] were 2.03 µM and 88.9 µM, respectively. Moreover, the Ratio IC50 in data set [5] is 43.8.

With `CCN(CC)CCCNc1nc2ccccc2[nH]1`, the Activity entry in data set [1] and in data set [4] was “Non-toxic” throughout. The IC50 in data set [2] and in data set [3] was more than 100 µM in each case.

On to `CCCCNc1nc2ccccc2n1C`, for which the Activity entry in data set [1] and in data set [4] was “Non-toxic” throughout. Also, the IC50 in data set [2] and in data set [3] was more than 100 µM throughout.

As for `COCCNc1nc2ccccc2[nH]1`, the Activity entry in data set [1] and in data set [4] was “Non-toxic” in each case. Also, the concentration for half-maximal inhibition (IC50) in data set [2] and in data set [3] was more than 100 µM throughout.
